Laboratory results from patent publication US4598077A, “Amidine derivatives and cardiotonic compositions” (Torii & Co. Ltd., priority 1983, dated 1986).
Structures can show the parent of a compound that is named as a salt. Where two headings read alike, the source gives them in different places.

Tests used:
[1] = test system: right atrium preparation; assay: Isolated, blood-perfused right atrium preparation, sinus rate (Table 1); parameters: species or system Mongrel dogs; conditions: Canis lupus familiaris, close-arterial injection, read-out: Right atrium preparation; for activation at 0.03 mg: dose 30 μg; for activation at 0.03 mg / activation at 0.1 mg / activation at 0.3 mg: % increase in sinus rate; for activation at 0.3 mg: dose 300 μg
Method: Mongrel dogs of either sex weighting 7.5-10 kg were anesthetized with sodium pentobarbital (30 mg/kg, i.v.). Each animal was given an intravenous dose of sodium heparin (500 units/kg), thereafter, the heart was removed and placed in cold Tyrode solution. The isolated and cross-circulated right atrium and papillary muscle preparations were arranged for perfusion from a donor dog as follows. The donor dog was also anesthetized with sodium pentobarbital (30 mg/kg, i.v.); heparin (500 units/kg) was given intravenously immediately before the perfusion began. (b) The isolated, blood-perfused right atrium preparation. The sinus node artery was cannulated at its origin in the right coronary artery. A right atrial electrogram was obtained from bipolar electrodes which were placed in close proximity to the sinoatrial node. The sinus rate was recorded by a cardiotachometer triggered by the right atrial electrogram. The details of the bloodperfused right atrium preparation have been described by Chiba et al. (Tohoku J. exp. Med., 107, 101-102 (1972) and Kubota and Hashimoto (Naunyn-Schmiedeberg's Arch. Pharmacol., 278, 135-150 (1973)). Each preparation was perfused with the arterial blood from the carotid artery of the donor dog at a constant perfusion pressure of 100 mmHg by means of a peristaltic pump. The venous effluent from the preparations was collected in a reservoir and returned to the donor dog through the jugular vein. Test compounds used in these experiments were dissolved in vehicle solution and were injected closearterially to the preparations. The effects of each compound on the developed tension and sinuo rate were evaluated as a percentage change in values determined before and after administration of the compound. In Table 1 are shown such changes in terms of the percentage increase after administration.

[2] = test system: anesthetized open-chest dogs; assay: Cardiovascular effect in anesthetized open-chest dogs (Table 2); type: in vivo, Mongrel dogs; conditions: femoral vein; for change in vivo at 0.1 mg/kg / change in vivo at 0.3 mg/kg / change in vivo at 0.03 mg/kg / change in vivo at 0.01 mg/kg: Canis lupus familiaris, iv
Method: Mongrel dogs of either sex weighing 9-15 kg were anesthetized with sodium pentobarbital (30 mg/kg, i.v.). The heart was exposed by thoractomy by the left fifth intercostal incision under artificial respiration. Aortic flow was measured by the probe of electromagnetic flowmeter placed around the ascending aorta. Myocardial contractility was measured by the maximal rate of rise of left ventricular pressure which was recorded from a needle inserted into the ventricular cavity. The systemic blood pressure was measured with a pressure transducer by means of a polyethylene cannular inserted into the femoral artery. The heart rate was recorded by a cardiotrachometer triggered by R wave of electrocargiogram (Lead II). Test compounds were dissolved in vehicle solution and were injected into the femoral vein. The effects of each compound on the cardiac contractility and aortic flow were evaluated as a percentage change in values determined before and after administration of the compound. In Table 2 are shown such changes in terms of the percentage increase after administration.

[3] = test system: papillary muscle preparation; assay: Isolated, blood-perfused papillary muscle preparation, developed tension (Table 1); parameters: species or system Mongrel dogs; conditions: Canis lupus familiaris, close-arterial injection, read-out: Papillary muscle preparation, % increase in developed tension; for activation at 0.03 mg: dose 30 μg; for activation at 0.1 mg: dose 100 μg; for activation at 0.3 mg: dose 300 μg
Method: Mongrel dogs of either sex weighting 7.5-10 kg were anesthetized with sodium pentobarbital (30 mg/kg, i.v.). Each animal was given an intravenous dose of sodium heparin (500 units/kg), thereafter, the heart was removed and placed in cold Tyrode solution. The isolated and cross-circulated right atrium and papillary muscle preparations were arranged for perfusion from a donor dog as follows. The donor dog was also anesthetized with sodium pentobarbital (30 mg/kg, i.v.); heparin (500 units/kg) was given intravenously immediately before the perfusion began. (a) The isolated, blood-perfused papillary muscle preparation. The anterior septal artery was dissected and cannulated with polyethylene tubing. The tendinous end of the papillary muscle was connected to a strain-gauge transducer by a fine silk thread and the muscles were under about 2 g of resting tension. The papillary muscle preparation was electrically driven at a constant frequency of 120/min with rectangular pulses of 1-3 V and 5 msec duration. The preparation of the blood-perfused papillary muscle has been described in detail by Endoh and Hashimoto Am. J. Physiol, 218, 1459-1463 (1970). Each preparation was perfused with the arterial blood from the carotid artery of the donor dog at a constant perfusion pressure of 100 mmHg by means of a peristaltic pump. The venous effluent from the preparations was collected in a reservoir and returned to the donor dog through the jugular vein. Test compounds used in these experiments were dissolved in vehicle solution and were injected closearterially to the preparations. The effects of each compound on the developed tension and sinuo rate were evaluated as a percentage change in values determined before and after administration of the compound. In Table 1 are shown such changes in terms of the percentage increase after administration.

[4] = 0.1 mg/kg, read-out: Increase in aortic flow (%)
[5] = 0.1 mg/kg, read-out: Increase in cardiac contractility (%)
[6] = 0.3 mg/kg, read-out: Increase in aortic flow (%)
[7] = 0.3 mg/kg, read-out: Increase in cardiac contractility (%)
[8] = read-out: Increase in aortic flow (%)
[9] = read-out: Increase in cardiac contractility (%)

SMILES | activation at 0.03 mg [1] | activation at 0.1 mg ([1]; dose 100 μg) | % decrease in aortic flow (in parentheses) ([2]; 0.3 mg/kg) | change in vivo at 0.1 mg/kg [2, 4] | change in vivo at 0.1 mg/kg [2, 5] | change in vivo at 0.3 mg/kg [2, 6] | change in vivo at 0.3 mg/kg [2, 7] | activation at 0.03 mg [3] | activation at 0.1 mg [3] | activation at 0.3 mg [1] | % decrease in cardiac contractility (in parentheses) ([2]; 0.3 mg/kg) | activation at 0.3 mg [3] | % decrease in aortic flow (in parentheses) ([2]; 0.1 mg/kg) | % decrease in cardiac contractility (in parentheses) ([2]; 0.1 mg/kg) | inhibition at 0.1 mg ([1]; dose 100 μg, % decrease in sinus rate (in parentheses)) | change in vivo at 0.03 mg/kg [2, 8] | change in vivo at 0.03 mg/kg [2, 9] | change in vivo at 0.01 mg/kg [2, 8] | change in vivo at 0.01 mg/kg [2, 9]
CNC(=N)c1ccc(CCc2ccc(CN)cc2)c([N+](=O)[O-])c1.Cl.Cl [Compound 16, 4-[2-(4-Aminomethylphenyl)ethyl]-N-methyl-3-nitrobenzamidine dihydrochloride] | 21.9% | 29.7% | -7.0% | 9% | 32% | 16.3% | 69.4% | 26% | 70.2% |  |  |  |  |  |  |  |  |  | 
COc1cc(CN)ccc1CCc1ccc(C(=N)NCCc2ccccn2)cc1.Cl.Cl.Cl [Compound 19, 4-[2-(4-Aminomethyl-2-methoxyphenyl)ethyl]-N-[2-(2-pyridyl)ethyl]benzamidine trihydrochloride] |  | 21.9% | -1.2% | 9.2% | 20% | 11.9% | 129% |  | 72.4% | 35.8% | -7.1% | 108% |  |  |  |  |  |  | 
CNC(=N)c1ccc(CCc2ccc(CN)cc2)cc1 [Compound 1, 4-[2-(4-aminomethylphenyl)ethyl]-N-methylbenzamidine dihydrochloride] | 26.2% | 34.1% |  | 30.4% | 42.1% | 38.8% | 57.5% | 44.1% | 78.1% |  |  |  |  |  |  |  |  |  | 
CNC(=N)c1ccc(OCc2ccc(CN)cc2)cc1 [Compound 10, 4-(4-Aminomethylbenzyloxy)-N-methylbenzamidine dihydrochloride] |  | 11.6% |  |  |  | 2.5% | 8.7% |  | 27.9% | 17.9% |  | 54.4% |  |  |  |  |  |  | 
CC(=O)O.N=C(N)c1ccc(OCc2ccc(CN)cc2)c(C(=O)c2ccccc2)c1 [Compound 9, 4-(4-Aminomethylbenzyloxy)-3-benzoylbenzamidine acetate] |  | 15.5% |  | 3.9% | 12.5% |  |  |  | 52.2% | 24.3% |  | 71.7% | -7.9% | -7.1% |  |  |  |  | 
CN=C(NC)c1ccc(CCc2ccc(CN)cc2[N+](=O)[O-])cc1.Cl.Cl [Compound 18, 4-[2-(4-Aminomethyl-2-nitrophenyl)ethyl]-N,N'-dimethylbenzamidine dihydrochloride] |  | 14% | -5.3% | 14.3% | 59.3% | 23.7% | 155% |  | 64% | 34.8% |  | 86.5% |  |  | 1.8% |  |  |  | 
N=C(NCCc1ccccn1)c1ccc(CCc2ccc(CN)cc2)cc1 [Compound 6, 4-[2-(4-Aminomethylphenyl)ethyl]-N-[2-(2-pyridyl)ethyl]benzamidine trihydrochloride] |  | 7.5% |  | 6.5% | 18% |  |  |  | 57.7% | 18.3% |  | 93.5% |  |  |  | 1.8% | 5.2% |  | 
CCCCNC(=N)c1ccc(CCc2ccc(CN)cc2)cc1.Cl.Cl [Compound 4, 4-[2-(4-Aminomethylphenyl)ethyl]-N-n-butyl-benzamidine dihydrochloride] | 19% | 30.6% |  | 20% | 26.1% | 50% | 52.9% | 45.8% | 76.5% |  | -3.4% |  |  |  |  |  |  |  | 
NCc1ccc(CCc2ccc(C3=NCCN3)cc2)cc1 [Compound 15, 2-{4-[2-(4-Aminomethylphenyl)ethyl]phenyl}imidazoline dihydrochloride] | 22.8% | 34.7% |  | 5.9% | 25% | 10% | 56.5% | 49.2% | 100% |  |  |  |  |  |  |  |  |  | 
CNC(=N)c1ccc(CCc2ccc(CN)cc2OC)cc1 [Compound 3, 4-[2-(4-Aminomethyl-2-methoxyphenyl)ethyl]-N-methylbenzamidine dihydrochloride] | 17.9% | 32.5% |  |  |  |  |  | 73.3% | 115% |  |  |  |  |  |  | 21.7% | 24.6% | 4.1% | 14%
Br.Br.CN=C(NC)c1ccc(CCc2ccc(CN)cc2)cc1 [Compound 14, N,N'-Dimethyl-4-[2-(4-aminomethylphenyl)ethyl]benzamidine dihydrobromide] | 28.9% | 31.8% | -16.3% | 8.7% | 30% | 32.7% | 47.5% | 59% | 100% |  | -6.8% |  |  |  |  |  |  |  | 
CNC(=N)c1ccc(OCc2ccc(C=CCN)cc2)c(C(=O)c2ccccc2)c1 [Compound 12, 4-[4-(3-amino-1-propenyl)benzyloxy]-3-benzoyl-N-methylbenzamidine dihydrochloride] | 23.3% | 31.6% |  | 8.7% | 40% |  |  | 46.2% | 77.8% |  |  |  |  |  |  | 6.1% | 18.8% |  | 
N=C(N)c1ccc(OCc2ccc(CCCN)cc2)c(C(=O)c2ccccc2)c1 [Compound 11, 4-[4-(3-Aminopropyl)benzyloxy]-3-benzoylbenzamidine dihydrochloride] | 32% | 71.4% |  | 7.5% | 14.3% |  |  | 48.8% | 82.5% |  |  |  |  |  |  |  |  |  | 
